Positions count from the first letter of the chain named.
What was measured:
Format in all cases: cell-based
Settings in all cases: for ΔpEC50±SEM: relative to WT, n = 3 in triplicate; for ΔpEC50±SEM / Span±SEM: mean ± SEM; for Span±SEM: window between maximal response (Emax) and vehicle, n = 3
PTH1R L174A mutant = target: T1, PTH1R L174A mutant (Homo sapiens, UniProt Q03431, L174A); assay: cAMP accumulation assay (GloSensor), PTH1R L174A
T1 construct: a flag-tag was fused to the N terminal of full-length PTH1R (WT or mutant); expressed in transfected cells; host or cells: HEK293T
T1 sequence (Q03431 27-593 L174A): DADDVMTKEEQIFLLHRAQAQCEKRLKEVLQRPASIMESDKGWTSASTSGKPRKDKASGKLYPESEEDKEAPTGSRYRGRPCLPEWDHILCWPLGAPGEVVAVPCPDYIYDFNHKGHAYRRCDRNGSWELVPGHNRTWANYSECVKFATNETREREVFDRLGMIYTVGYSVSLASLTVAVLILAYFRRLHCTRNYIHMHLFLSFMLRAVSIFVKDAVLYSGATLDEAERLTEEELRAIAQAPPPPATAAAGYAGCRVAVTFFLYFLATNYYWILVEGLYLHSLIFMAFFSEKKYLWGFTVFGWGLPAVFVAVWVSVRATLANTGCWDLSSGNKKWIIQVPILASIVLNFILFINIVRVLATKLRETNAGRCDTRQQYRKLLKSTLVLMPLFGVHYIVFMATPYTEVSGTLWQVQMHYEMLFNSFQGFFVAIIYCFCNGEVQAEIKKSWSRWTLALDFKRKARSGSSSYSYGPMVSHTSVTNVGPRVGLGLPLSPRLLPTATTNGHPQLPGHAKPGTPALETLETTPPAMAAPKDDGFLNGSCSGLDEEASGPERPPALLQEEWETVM
Experimental: (§1) Human embryonic kidney 293 T (HEK293T, ATCC: CRL-1573) cells were transfected with a plasmid mixture consisting of pcDNA3.1-flag-PTH1R (WT or mutants) and the cAMP biosensor GloSensor-22F (Promega) at a ratio of 2:1 (see Supplementary Table 7 for a list of primers used in this study). After 24 h, transfected cells were plated onto a 384-well plate, which was treated with cell adherent reagent (Applygen) in advance. After another 12 h, cells were treated with Hank’s balanced salt solution for starvation and then incubated in CO2-independent media containing 4% GloSensor cAMP Reagent (Promega) at a volume of 5 μl per well and incubated for 20 min at RT before measurements for baseline luminescence (Spark Multimode microplate reader, TECAN). Next, test ligands were added at different concentrations from 10^−6 to 10^−13 M before second measurement. Finally, data were normalized to 100% of the maximal PTH (1-34) response for WT PTH1R using a sigmoidal dose-response in GraphPad Prism.
(§2) Statistical analyses were performed on at least three individual datasets and analysed using GraphPad Prism software. Bars represent differences in the calculated agonist potency (pEC50) and maximum agonist response (Emax) for each mutant relative to the WT receptor. Data are mean± s.e.m. from at least three independent experiments, performed in triplicates. ns, not significant, ^nsP > 0.01; ^*P < 0.01; ^**P < 0.001; ^***P < 0.0001 (one-way analysis of variance (ANOVA) followed by Dunnett’s test, compared with the response of the WT). For dose-response experiments, data were normalized and analyzed using nonlinear curve fitting for the log (agonist) versus response (three parameters) curves.

PTH1R Y191A mutant = target: T2, PTH1R Y191A mutant (Homo sapiens, UniProt Q03431, Y191A); assay: cAMP accumulation assay (GloSensor), PTH1R Y191A
T2 construct: a flag-tag was fused to the N terminal of full-length PTH1R (WT or mutant); expressed in transfected cells; host or cells: HEK293T
T2 sequence (Q03431 27-593 Y191A): T1 sequence (Q03431 27-593 L174A) with A148L, Y165A
Experimental: as §1, §2

PTH1R V285A mutant = target: T3, PTH1R V285A mutant (Homo sapiens, UniProt Q03431, V285A); assay: cAMP accumulation assay (GloSensor), PTH1R V285A
T3 construct: a flag-tag was fused to the N terminal of full-length PTH1R (WT or mutant); expressed in transfected cells; host or cells: HEK293T
T3 sequence (Q03431 27-593 V285A): T1 sequence (Q03431 27-593 L174A) with A148L, V259A
Experimental: as §1, §2

span (from the WT) (PTH1R L174A mutant; PTH1R L1741.26A, replicate 1)	ΔpEC50 (from the WT) (PTH1R L174A mutant; PTH1R L1741.26A, replicate 1)	span (from the WT) (PTH1R L174A mutant; PTH1R L1741.26A, replicate 2)	ΔpEC50 (from the WT) (PTH1R L174A mutant; PTH1R L1741.26A, replicate 2)	span (from the WT) (PTH1R L174A mutant; PTH1R L1741.26A, replicate 3)	ΔpEC50 (from the WT) (PTH1R L174A mutant; PTH1R L1741.26A, replicate 3)	ΔpEC50±SEM (PTH1R L174A mutant)	ΔpEC50 (from the WT) (PTH1R L174A mutant; replicate 1)	ΔpEC50 (from the WT) (PTH1R L174A mutant; replicate 2)	ΔpEC50 (from the WT) (PTH1R L174A mutant; replicate 3)	Span±SEM (PTH1R L174A mutant)	span (from the WT) (PTH1R Y191A mutant; PTH1R Y1911.43A, replicate 1)	ΔpEC50 (from the WT) (PTH1R Y191A mutant; PTH1R Y1911.43A, replicate 1)	span (from the WT) (PTH1R Y191A mutant; PTH1R Y1911.43A, replicate 2)	ΔpEC50 (from the WT) (PTH1R Y191A mutant; PTH1R Y1911.43A, replicate 2)	span (from the WT) (PTH1R Y191A mutant; PTH1R Y1911.43A, replicate 3)	ΔpEC50 (from the WT) (PTH1R Y191A mutant; PTH1R Y1911.43A, replicate 3)	ΔpEC50±SEM (PTH1R Y191A mutant)	ΔpEC50 (from the WT) (PTH1R Y191A mutant; replicate 1)	ΔpEC50 (from the WT) (PTH1R Y191A mutant; replicate 2)	Substance	also measured
93.64	-0.262	87.77	-0.161	98.4	-0.17	-0.20±0.03	-0.262	-0.161	-0.17	93.27±3.07	133.3	-0.163	153.3	-0.013	159.2	-0.095	-0.09±0.04	-0.163	-0.013	H-AVAEIQLMHQRAKWIQDARRRAFLHKLIAEIHTAEI-OH [LA-PTH, long-acting PTH analog, modified PTH/PTHrP hybrid]	ΔpEC50 (from the WT) (PTH1R Y191A mutant; replicate 3): -0.095; Span±SEM (PTH1R Y191A mutant): 148.60±7.84; span (from the WT) (PTH1R V285A mutant; PTH1R V2853.33A, replicate 1): 160.1; ΔpEC50 (from the WT) (PTH1R V285A mutant; PTH1R V2853.33A, replicate 1): -0.326; span (from the WT) (PTH1R V285A mutant; PTH1R V2853.33A, replicate 2): 211.8; ΔpEC50 (from the WT) (PTH1R V285A mutant; PTH1R V2853.33A, replicate 2): -0.5; span (from the WT) (PTH1R V285A mutant; PTH1R V2853.33A, replicate 3): 140.2; ΔpEC50 (from the WT) (PTH1R V285A mutant; PTH1R V2853.33A, replicate 3): -0.433; ΔpEC50±SEM (PTH1R V285A mutant): -0.42±0.05; ΔpEC50 (from the WT) (PTH1R V285A mutant; replicate 1): -0.326; ΔpEC50 (from the WT) (PTH1R V285A mutant; replicate 2): -0.5; ΔpEC50 (from the WT) (PTH1R V285A mutant; replicate 3): -0.433; Span±SEM (PTH1R V285A mutant): 170.70±21.34
90.7	-0.41	103.2	-0.706	154.9	-0.481	-0.53±0.09	-0.41	-0.706	-0.481	116.27±19.65	132.4	-0.995	179.6	-0.805	268.7	-0.706	-0.84±0.08	-0.995	-0.805	H-SVSEIQLMHNLGKHLNSMERVEWLRKKLQDVHNF-OH [PTH, Teriparatide, human PTH 1-34, long-acting peptide agonist of PTH1R]	ΔpEC50 (from the WT) (PTH1R Y191A mutant; replicate 3): -0.706; Span±SEM (PTH1R Y191A mutant): 164.77±14.05; span (from the WT) (PTH1R V285A mutant; PTH1R V2853.33A, replicate 1): 118.6; ΔpEC50 (from the WT) (PTH1R V285A mutant; PTH1R V2853.33A, replicate 1): -0.181; span (from the WT) (PTH1R V285A mutant; PTH1R V2853.33A, replicate 2): 150.8; ΔpEC50 (from the WT) (PTH1R V285A mutant; PTH1R V2853.33A, replicate 2): -0.072; span (from the WT) (PTH1R V285A mutant; PTH1R V2853.33A, replicate 3): 181.1; ΔpEC50 (from the WT) (PTH1R V285A mutant; PTH1R V2853.33A, replicate 3): -0.211; ΔpEC50±SEM (PTH1R V285A mutant): -0.15±0.04; ΔpEC50 (from the WT) (PTH1R V285A mutant; replicate 1): -0.181; ΔpEC50 (from the WT) (PTH1R V285A mutant; replicate 2): -0.072; ΔpEC50 (from the WT) (PTH1R V285A mutant; replicate 3): -0.211; Span±SEM (PTH1R V285A mutant): 152.43±15.43

Substance	span (from the WT) (PTH1R L174A mutant; PTH1R L1741.26A, replicate 1)	ΔpEC50 (from the WT) (PTH1R L174A mutant; PTH1R L1741.26A, replicate 1)	span (from the WT) (PTH1R L174A mutant; PTH1R L1741.26A, replicate 2)	ΔpEC50 (from the WT) (PTH1R L174A mutant; PTH1R L1741.26A, replicate 2)	span (from the WT) (PTH1R L174A mutant; PTH1R L1741.26A, replicate 3)	ΔpEC50 (from the WT) (PTH1R L174A mutant; PTH1R L1741.26A, replicate 3)	ΔpEC50±SEM (PTH1R L174A mutant)	ΔpEC50 (from the WT) (PTH1R L174A mutant; replicate 1)	ΔpEC50 (from the WT) (PTH1R L174A mutant; replicate 2)	ΔpEC50 (from the WT) (PTH1R L174A mutant; replicate 3)	Span±SEM (PTH1R L174A mutant)	span (from the WT) (PTH1R Y191A mutant; PTH1R Y1911.43A, replicate 1)	ΔpEC50 (from the WT) (PTH1R Y191A mutant; PTH1R Y1911.43A, replicate 1)	span (from the WT) (PTH1R Y191A mutant; PTH1R Y1911.43A, replicate 2)	ΔpEC50 (from the WT) (PTH1R Y191A mutant; PTH1R Y1911.43A, replicate 2)	span (from the WT) (PTH1R Y191A mutant; PTH1R Y1911.43A, replicate 3)	ΔpEC50 (from the WT) (PTH1R Y191A mutant; PTH1R Y1911.43A, replicate 3)	ΔpEC50±SEM (PTH1R Y191A mutant)	ΔpEC50 (from the WT) (PTH1R Y191A mutant; replicate 1)	ΔpEC50 (from the WT) (PTH1R Y191A mutant; replicate 2)	also measured
H-AVSEHQLLHDKGKSIQDLRRRELLEKLL-{Aib}-KLHTA-NH2 [ABL, Abaloparatide, an analog of PTHrP, short-acting PTH1R agonist]	94.46	-0.37	117	-0.52	129.9	-0.682	-0.52±0.09	-0.37	-0.52	-0.682	113.79±10.36	197.4	-2.59	251.3	-2.509	242	-2.365	-2.49±0.07	-2.59	-2.509	ΔpEC50 (from the WT) (PTH1R Y191A mutant; replicate 3): -2.365; Span±SEM (PTH1R Y191A mutant): 230.23±16.63; span (from the WT) (PTH1R V285A mutant; PTH1R V2853.33A, replicate 1): 158.8; ΔpEC50 (from the WT) (PTH1R V285A mutant; PTH1R V2853.33A, replicate 1): -1.921; span (from the WT) (PTH1R V285A mutant; PTH1R V2853.33A, replicate 2): 185.5; ΔpEC50 (from the WT) (PTH1R V285A mutant; PTH1R V2853.33A, replicate 2): -2.009; span (from the WT) (PTH1R V285A mutant; PTH1R V2853.33A, replicate 3): 175.8; ΔpEC50 (from the WT) (PTH1R V285A mutant; PTH1R V2853.33A, replicate 3): -2.246; ΔpEC50±SEM (PTH1R V285A mutant): -2.06±0.1; ΔpEC50 (from the WT) (PTH1R V285A mutant; replicate 1): -1.921; ΔpEC50 (from the WT) (PTH1R V285A mutant; replicate 2): -2.009; ΔpEC50 (from the WT) (PTH1R V285A mutant; replicate 3): -2.246; Span±SEM (PTH1R V285A mutant): 173.37±7.80

Source: publication PMC9586930, “Molecular insights into the distinct signaling duration for the peptide-induced PTH1R activation” (Nature Communications, 2022)
